The values that follow come from patent US20220363649A1, “ORGANIC COMPOUNDS” (Rutgers, The State University of New Jersey, priority 2018, published 2022).

pKi: −log10 of the molar value. Like-named read-outs stand apart in the source and are kept apart here.

For assay [1], the target named is T1, S1R (Cavia porcellus, UniProt Q60492).
T1 construct: performed using Guinea pig whole brain according to the protocol previously reported; from tissue; host or cells: guinea pig whole brain membrane preparations
T1 sequence (Q60492 whole entry): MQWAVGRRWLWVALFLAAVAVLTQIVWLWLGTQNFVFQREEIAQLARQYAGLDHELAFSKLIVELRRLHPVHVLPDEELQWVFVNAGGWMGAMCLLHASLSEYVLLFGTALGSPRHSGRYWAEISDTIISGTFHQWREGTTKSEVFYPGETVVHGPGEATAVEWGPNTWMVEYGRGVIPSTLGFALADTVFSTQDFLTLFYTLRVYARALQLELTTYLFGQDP
The experiment in a line: S1R radiolabeled binding assay, guinea pig whole brain, [3H]-pentazocine. The protocol: Following 1 h incubation at 25° C., the binding assay was terminated by addition of cold buffer. The mixture was then filtered through Whatman GF/B filters and washed with cold buffer. Radioactivity was identified using the liquid scintillation counter.
Receptor binding data were analyzed by nonlinear regression of saturation and competition curves using the GraphPad Prism 7.0 software (GraphPad Software, La Jolla, Calif.).
(§1) Radiolabeled binding assays were conducted using two different species.

Assay [2] concerns the target T2, human S1R (Homo sapiens, UniProt Q99720).
T2 construct: experimentally determined in human jurkat cell membranes using 15.0 nM; endogenous in cells; host or cells: human Jurkat cell membranes
The assay is described as follows: Human S1R radiolabeled binding assay, human jurkat cell membranes, [3H]-pentazocine. The following applies: human membranes (Compounds 10-76). The method, then:
The binding process was terminated by addition of cold buffer. Then, the mixture was filtered and washed with cold buffer. Radioactivity was identified using the TopCount NTX liquid scintillation counter (PerkinElmer, Waltham, Mass.).
as §1

In assay [3] the target is T3, human S2R (Homo sapiens, UniProt Q5BJF2).
T3 construct: performed using Jurkat cell line Clone E6-1 cells with 0.025 μM; endogenous in cells; host or cells: Jurkat Clone E6-1 cell membranes
T3 sequence (Q5BJF2 whole entry): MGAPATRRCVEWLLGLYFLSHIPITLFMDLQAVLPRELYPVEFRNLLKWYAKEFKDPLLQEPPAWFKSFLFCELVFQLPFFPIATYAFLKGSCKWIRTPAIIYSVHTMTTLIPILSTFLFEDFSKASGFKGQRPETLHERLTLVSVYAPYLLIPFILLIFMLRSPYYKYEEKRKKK
The experiment in a line: Human S2R radiolabeled binding assay, Jurkat Clone E6-1 cell membranes, [3H] DTG. Particulars: for pKi: human membranes (Compounds 10-76); for S2R % at 1 μM: human membranes. The protocol: The radiolabeled binding assay of the human S1R and S2R were performed using human jurkat cell membranes according to the protocol previously reported (Ganapathy, et al., 1999, J. Pharmacol. Exp. Ther. 289:251-60).
DTG as radioligand. […] The cells were incubated in RPMI 1640 Medium with 10% FBS, 100 U/ml penicillin and […] streptomycin. After incubation, the cells were suspended in 5 mM potassium phosphate buffer (pH=7.6). The membrane protein concentration was controlled at 5 mg/mL. The collected membrane protein was incubated with ligands in potassium phosphate buffer for 1 hour at room temperature and terminated by adding ice-cold buffer. Then the mixture is filtered with 0.7 μm syringe filter and washed three times. The radioactivity is determined by liquid scintillation spectrometry.
Radiolabeled binding assays were conducted using two different species. Compounds 1-9 were assayed using guinea pig brain membranes for the binding assays. Compounds 10-76 were assayed using human brain membranes for the binding assays.

Setting [4] is: guinea pig brain membranes (Compounds 1-9), read-out: S1R Ki.

T2 sequence (Q99720 whole entry): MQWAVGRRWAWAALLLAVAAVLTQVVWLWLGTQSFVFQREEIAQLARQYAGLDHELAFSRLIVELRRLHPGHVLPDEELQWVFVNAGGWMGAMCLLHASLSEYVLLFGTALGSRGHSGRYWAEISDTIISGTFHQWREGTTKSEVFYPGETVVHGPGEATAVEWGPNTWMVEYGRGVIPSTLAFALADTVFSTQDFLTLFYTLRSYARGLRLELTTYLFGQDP

Regarding `Cn1nc(CN2CCCCC2)nc1-c1ccc(C(C)(C)C)cc1` [Compound 1, 1-((5-(4-(tert-butyl)phenyl)-1-methyl-1H-1,2,4-triazol-3-yl)methyl)piperidine], the negative-log Ki (pKi) (usually −log10 of the Ki, conventionally taken in molar units) in assay [1] (setting [4]) was 8.43.
Still for that read-out and setting: as for `Cn1nc(CN2CCOCC2)nc1-c1ccc(C(C)(C)C)cc1` [Compound 2, 4-((5-(4-(tert-butyl)phenyl)-1-methyl-1H-1,2,4-triazol-3-yl)methyl)morpholine], the figure is 7.25; as for `CN1CCN(Cc2nc(-c3ccc(C(C)(C)C)cc3)n(C)n2)CC1` [Compound 3, 1-((5-(4-(tert-butyl)phenyl)-1-methyl-1H-1,2,4-triazol-3-yl)methyl)-4-methylpiperazine], 6.88.
The compound `Cn1nc(CN2CCN(c3ccccc3)CC2)nc1-c1ccc(C(C)(C)C)cc1` [Compound 4, 1-((5-(4-(tert-butyl)phenyl)-1-methyl-1H-1,2,4-triazol-3-yl)methyl)-4-phenylpiperazine] showed a negative logarithm of the Ki (pKi) in assay [1] of 7.84.
Still for that read-out and setting: the same measure for `Cn1nc(CN2CCN(CCc3ccccc3)CC2)nc1-c1ccc(C(C)(C)C)cc1` [Compound 5, 1-((5-(4-(tert-butyl)phenyl)-1-methyl-1H-1,2,4-triazol-3-yl)methyl)-4-phenethylpiperazine]: 7.99.
Regarding `Cn1nc(CN2CCN(Cc3ccccc3)CC2)nc1-c1ccc(C(C)(C)C)cc1` [Compound 6, 1-benzyl-4-((5-(4-(tert-butyl)phenyl)-1-methyl-1H-1,2,4-triazol-3-yl)methyl)piperazine], the pKi in assay [1] (setting [4]) was 8.26.
Consider `Cn1nc(CN2CCC(Cc3ccccc3)CC2)nc1-c1ccc(C(C)(C)C)cc1` [Compound 7, 4-benzyl-1-((5-(4-(tert-butyl)phenyl)-1-methyl-1H-1,2,4-triazol-3-yl)methyl)piperidine], for which the pKi in assay [1] (setting [4]) is 8.69.
Still for that read-out and setting: as for `CN(Cc1nc(-c2ccc(C(C)(C)C)cc2)n(C)n1)CC1CC1` [Compound 9, 1-(5-(4-(tert-butyl)phenyl)-1-methyl-1H-1,2,4-triazol-3-yl)-N-(cyclopropylmethyl)-N-methylmethanamine], the figure is 9.21.
Regarding `Cn1nc(CN2CCCC2)nc1-c1ccc(C2(C(F)(F)F)CC2)cc1` [Compound 10, 1-methyl-3-(pyrrolidin-1-ylmethyl)-5-(4-(1-(trifluoromethyl)cyclopropyl)phenyl)-1H-1,2,4-triazole], the pKi in assay [2] was 8.00; in assay [3], less than 6.00.
`Cn1nc(CN2CCCC2)nc1-c1ccc(Cl)c(Cl)c1` [Compound 11, 5-(3,4-dichlorophenyl)-1-methyl-3-(pyrrolidin-1-ylmethyl)-1H-1,2,4-triazole]: the pKi is 7.66 in assay [2] and less than 6.00 in assay [3].
The matching figures for `Cc1cc(-c2nc(CN3CCCC3)nn2C)ccc1C(F)(F)F` [Compound 13, 1-methyl-5-(3-methyl-4-(trifluoromethyl)phenyl)-3-(pyrrolidin-1-ylmethyl)-1H-1,2,4-triazole]: 7.68 and less than 6.00.
The matching figures for `Cn1nc(CN2CCCC2)nc1-c1ccc2c(c1)CCCC2` [Compound 15, 1-methyl-3-(pyrrolidin-1-ylmethyl)-5-(5,6,7,8-tetrahydronaphthalen-2-yl)-1H-1,2,4-triazole]: 7.45 and less than 6.00.
As for `Cn1nc(CN2CCCC2)nc1-c1cccc(C2(C(F)(F)F)CC2)c1` [Compound 17, 1-methyl-3-(pyrrolidin-1-ylmethyl)-5-(3-(1-(trifluoromethyl)cyclopropyl)phenyl)-1H-1,2,4-triazole], the pKi in assay [2] was 7.49; in assay [3], less than 6.00.
Consider `Cn1nc(CN2CCCC2)nc1-c1ccc2cc(Cl)sc2c1` [Compound 25, 5-(2-chlorobenzo[b]thiophen-6-yl)-1-methyl-3-(pyrrolidin-1-ylmethyl)-1H-1,2,4-triazole], for which the pKi in assay [2] is 7.43; in assay [3], less than 6.00.
The matching figures for `Cn1nc(CN2CCC(C)(C)C2)nc1-c1ccc(C(C)(C)C)cc1` [Compound 26, 5-(4-(tert-butyl)phenyl)-3-((3,3-dimethylpyrrolidin-1-yl)methyl)-1-methyl-1H-1,2,4-triazole]: 9.05 and 6.72.
The matching figures for `CCn1nc(CN2CCCC2)nc1-c1ccc(C(C)(C)C)cc1` [Compound 30, 5-(4-(tert-butyl)phenyl)-1-ethyl-3-(pyrrolidin-1-ylmethyl)-1H-1,2,4-triazole]: 8.32 and 5.77.
The matching figures for `CC(C)n1nc(CN2CCCC2)nc1-c1ccc(C(C)(C)C)cc1` [Compound 31, 5-(4-(tert-butyl)phenyl)-1-isopropyl-3-(pyrrolidin-1-ylmethyl)-1H-1,2,4-triazole]: 8.67 and 5.84.
Turning to `CC(C)(C)c1ccc(-c2nc(CN3CCCC3)nn2C2CC2)cc1` [Compound 32, 5-(4-(tert-butyl)phenyl)-1-cyclopropyl-3-(pyrrolidin-1-ylmethyl)-1H-1,2,4-triazole], the results for the negative-log Ki (pKi) in assay [2] and in assay [3] were 7.86 and 6.12, respectively.
Compound `CCn1nc(CN2CCC3(CCCC3)C2)nc1-c1ccc(C(C)(C)C)cc1` [Compound 65, 2-((5-(4-(tert-butyl)phenyl)-1-ethyl-1H-1,2,4-triazol-3-yl)methyl)-2-azaspiro[4.4]nonane] had a pKi in assay [2] of 9.28. In addition, the “S2R % at 1 μM” value in assay [3] is given as 96% at 1 μM.
`CCn1nc(CN2CC3CCCC3C2)nc1-c1ccc(C(C)(C)C)cc1` (stereo not shown) [Compound 66, 2-((5-(4-(tert-butyl)pheny)-1-ethyl-1H-1,2,4-triazol-3-yl)methyl)octahydrocyclopenta[c]pyrrole] gave a negative-log Ki (pKi) in assay [2] of 9.24. Moreover, the “S2R % at 1 μM” value in assay [3] worked out at 73% at 1 μM.
`CC(C)(C)c1ccc(-c2nc(CN3CCC4(CCCC4)C3)nn2C2CC2)cc1` [Compound 75, 2-((5-(4-(tert-butyl)phenyl)-1-cyclopropyl-1H-1,2,4-triazol-3-yl)methyl)-2-azaspiro[4.4]nonane] showed a pKi in assay [2] of 9.25. In addition, the “S2R % at 1 μM” value in assay [3] is listed as 105% at 1 μM.
